In brackets after ≈: the same amount, converted by molar mass. Entries after “also recorded” stand apart in the source; their conditions may differ. Like-named read-outs stand apart in the source and are kept apart here.
Columns and labels:
[1] = test system: Bacteroides fragilis; assay: MIC against common gut bacteria; type: cell-based
[2] = test system: C. difficile; assay: MIC against C. difficile (strain not named; 14 strains overall); type: cell-based, Clostridium difficile
[3] = test system: C. difficile infection; conditions: patients treated for CDI; cited from earlier work
[4] = test system: Bacteroides vulgatus; assay: MIC against common gut bacteria; type: cell-based; conditions: Phocaeicola vulgatus
[5] = test system: C. difficile BAA-1870; assay: MIC, broth microdilution; type: cell-based; conditions: Clostridioides difficile, BAA1870, C. difficile BAA-1870 (NAP1, ribotype 27)
[6] = test system: Bacteroides ovatus; assay: MIC against common gut bacteria; type: cell-based
[7] = test system: Bifidobacterium longum HM-846; assay: MIC against common gut bacteria; type: cell-based; conditions: HM846
[8] = test system: C. difficile BAA-1804; assay: MIC, broth microdilution; type: cell-based; conditions: Clostridioides difficile
[9] = test system: Lactobacillus gasseri HM-644; assay: MIC against common gut bacteria; type: cell-based; conditions: HM644
[10] = test system: C. difficile BAA-1803; assay: MIC, broth microdilution; type: cell-based; conditions: Clostridioides difficile
[11] = test system: Corynebacterium sp. HM-784; assay: MIC against common gut bacteria; type: cell-based; conditions: SP.HM784
Experimental: Minimally-inhibitory concentrations. MICs for C. difficile strains and the common gut bacteria were determined using broth microdilution techniques as reported earlier using brucella broth supplemented with hemin and vitamin K or supplemented BHIS broth (Babakhani et al., J Antimicrob Chemother 2013, 68(3), 515). Lactobacillus MRS broth was used for lactobacillus strains. […] All incubations unless specified otherwise were carried out at 24 or 48 h at 37° C. in an anaerobic chamber (Whitley DG250 workstation, Microbiology International, Frederick, MD). Corynebacterium and lactobacillus species were incubated aerobically.

[12] = test system: C. difficile BAA-1801; assay: MIC, broth microdilution; type: cell-based; conditions: Clostridioides difficile
[13] = test system: Bacteroides eggerthii; assay: MIC against common gut bacteria; type: cell-based
[14] = test system: Bacteroides fragilis HM-709; assay: MIC against common gut bacteria; type: cell-based; conditions: HM709
[15] = test system: Fusobacterium nucleatum HM-992; assay: MIC against common gut bacteria; type: cell-based; conditions: HM992
[16] = test system: C. difficile ATCC43598; assay: MIC, broth microdilution; type: cell-based; conditions: Clostridioides difficile
[17] = test system: C. difficile ATCC43255; assay: MIC, broth microdilution; type: cell-based; conditions: Clostridioides difficile
[18] = test system: C. difficile; conditions: cited from earlier work; for Activity against C. difficile spores: at 8× or 80× MIC; for Inhibition of toxin production: at 8×MIC
[19] = test system: Veillonella sp. HM-49; assay: MIC against common gut bacteria; type: cell-based; conditions: SP.HM49
[20] = test system: Bacteroides caccae; assay: MIC against common gut bacteria; type: cell-based
[21] = test system: Lactobacillus reuteri HM-102; assay: MIC against common gut bacteria; type: cell-based; conditions: Limosilactobacillus reuteri, HM102
[22] = test system: C. difficile BAA-1812; assay: MIC, broth microdilution; type: cell-based; conditions: Clostridioides difficile
[23] = test system: DNA, protein and peptidoglycan synthesis in C. difficile ATCC 43255; assay: Macromolecular synthesis assays; type: cell-based; conditions: N-acetyl-d-[6-3H]-glucosamine incorporation; ½ MIC; 120 min
Excerpt: Macromolecular synthesis assays. The method of Mathur et al (J Antimicrob Chemother 2011, 66(5), 1087) was used with a few modifications. [2,8-^3H]-adenine (40 Ci/mmol), 1-[3,4,5-^3H(N)]-leucine (120 Ci/mmol), and N-acetyl-d-[6-^3H]-glucosamine (30 Ci/mmol) were purchased from Perkin Elmer (Waltham, MA). Ciproflaxin, linezolid, and oxacillin, were used as positive controls for DNA, protein, and peptidoglycan, respectively. Ciprofloxacin and oxacillin were purchased from Sigma-Aldrich (St. Louis, MO), linezolid was obtained from AmplaChem Inc. (Carmel, IN). […] Aliquots were taken every 30 min for radioactive counting and viability. Optimal incubation times were 60 min for DNA, 180 min for protein, and 120 min for peptidoglycan.

[24] = test system: C. difficile NR49294; assay: MIC, broth microdilution; type: cell-based; conditions: Clostridioides difficile
[25] = test system: C. difficile strain ATCC 43255; assay: Mouse model of recurrent CDI, second study: fecal cell, spore and toxin evaluation; type: in vivo, mice
Experimental: C. difficile Mouse Model. […] A negative vehicle control will be included. […] This study was conducted in duplicates.
A second study was conducted with oxadiazole 2 given po at 20 or 40 mg/kg for 5 days and vancomycin administered at 50 mg/kg po for 5 days. Fecal samples were collected on days 3, 7, and 10 for C. difficile spore and toxin evaluation.

[26] = test system: C. difficile strain ATCC 43255; assay: Mouse model of recurrent CDI, survival; conditions: po once a day for 5 days; oxadiazole 2 20 mg/kg/day, vancomycin 50 mg/kg/day
[27] = test system: C. difficile BAA-1814; assay: MIC, broth microdilution; type: cell-based; conditions: Clostridioides difficile
[28] = test system: C. difficile NR49318; assay: MIC, broth microdilution; type: cell-based; conditions: Clostridioides difficile
[29] = test system: C. difficile NR49292; assay: MIC, broth microdilution; type: cell-based; conditions: Clostridioides difficile

Cc1ncc([N+](=O)[O-])n1CCO [metronidazole]
MIC ([1]; read-out: MIC): 1 µg/mL (≈ 5.84 µM) | MIC range in 14 C. difficile strains ([2]; 14 C. difficile strains): 0.1 to 0.25 µg/mL | Patients with recurrence of the infection [3]: About 25% | MIC ([4]; Bacteroides vulgatus, read-out: MIC): 2 µg/mL (≈ 11.7 µM) | MIC ([5]; 24 h, read-out: MIC at 24 h): 0.25 µg/mL (≈ 1.46 µM) | MIC ([5]; 48 h, read-out: MIC at 48 h): 0.5 µg/mL (≈ 2.92 µM) | MIC ([6]; read-out: MIC): 2 µg/mL (≈ 11.7 µM) | MIC ([7]; Bifidobacterium longum HM-846, read-out: MIC): 0.5 µg/mL (≈ 2.92 µM) | MIC ([8]; BAA1804, C. difficile BAA-1804, 24 h, read-out: MIC at 24 h): 0.25 µg/mL (≈ 1.46 µM) | MIC ([8]; BAA1804, C. difficile BAA-1804, 48 h, read-out: MIC at 48 h): 0.25 µg/mL (≈ 1.46 µM) | MIC ([9]; Lactobacillus gasseri HM-644, read-out: MIC): > 32 µg/mL | MIC ([10]; BAA1803, C. difficile BAA-1803 (NAP1, ribotype 027), 24 h, read-out: MIC at 24 h): 0.25 µg/mL (≈ 1.46 µM) | MIC ([10]; BAA1803, C. difficile BAA-1803 (NAP1, ribotype 027), 48 h, read-out: MIC at 48 h): 0.5 µg/mL (≈ 2.92 µM) | MIC ([11]; Corynebacterium sp. HM-784, incubated aerobically, read-out: MIC): > 32 µg/mL | MIC ([12]; BAA1801, C. difficile BAA-1801 (nontoxigenic), 24 h, read-out: MIC at 24 h): 0.125 µg/mL (≈ 0.73 µM) | MIC ([12]; BAA1801, C. difficile BAA-1801 (nontoxigenic), 48 h, read-out: MIC at 48 h): 0.125 µg/mL (≈ 0.73 µM) | MIC ([13]; read-out: MIC): 2 µg/mL (≈ 11.7 µM) | MIC ([14]; Bacteroides fragilis HM-709, read-out: MIC): 0.5 µg/mL (≈ 2.92 µM) | MIC ([15]; Fusobacterium nucleatum HM-992, read-out: MIC): 2 µg/mL (≈ 11.7 µM) | MIC ([16]; C. difficile ATCC43598, 24 h, read-out: MIC at 24 h): 0.125 µg/mL (≈ 0.73 µM) | MIC ([16]; C. difficile ATCC43598, 48 h, read-out: MIC at 48 h): 0.125 µg/mL (≈ 0.73 µM) | MIC ([17]; C. difficile ATCC43255, 24 h, read-out: MIC at 24 h): 0.01 µg/mL (≈ 0.0584 µM) | MIC ([17]; C. difficile ATCC43255, 48 h, read-out: MIC at 48 h): 0.01 µg/mL (≈ 0.0584 µM) | Activity against C. difficile spores [18]: not active | Inhibition of toxin production [18]: Neither vancomycin nor metronidazole inhibit toxin production | MIC ([19]; Veillonella sp. HM-49, read-out: MIC): 2 µg/mL (≈ 11.7 µM) | MIC ([20]; read-out: MIC): 2 µg/mL (≈ 11.7 µM) | MIC ([21]; Lactobacillus reuteri HM-102, read-out: MIC): > 32 µg/mL | MIC ([22]; BAA1812, C. difficile BAA-1812, 24 h, read-out: MIC at 24 h): 0.25 µg/mL (≈ 1.46 µM) | MIC ([22]; BAA1812, C. difficile BAA-1812, 48 h, read-out: MIC at 48 h): 0.25 µg/mL (≈ 1.46 µM)

Cc1onc(-c2ccccc2)c1C(=O)N[C@@H]1C(=O)N2[C@@H]1SC(C)(C)[C@@H]2C(=O)O [oxacillin]
Inhibition of peptidoglycan synthesis [23]: 54.1±13% | MIC ([17]; ATCC43255, FIG. 3 legend, C. difficile, read-out: MIC of positive controls of the macromolecular synthesis assays): 8 µg/mL

CN[C@H](CC(C)C)C(=O)N[C@H]1C(=O)N[C@@H](CC(N)=O)C(=O)N[C@H]2C(=O)N[C@H]3C(=O)N[C@H](C(=O)N[C@H](C(=O)O)c4cc(O)cc(O)c4-c4cc3ccc4O)[C@H](O)c3ccc(c(Cl)c3)Oc3cc2cc(c3O[C@@H]2O[C@H](CO)[C@@H](O)[C@H](O)[C@H]2O[C@H]2C[C@](C)(N)[C@H](O)[C@H](C)O2)Oc2ccc(cc2Cl)[C@H]1O [vancomycin]
MIC [1]: 16 µg/mL (≈ 11 µM) | MIC range in 14 C. difficile strains [2]: 0.25 to 1 µg/mL | Patients with recurrence of the infection [3]: About 25% | MIC ([24]; NR49294, 24 h, read-out: MIC at 24 h): 0.25 µg/mL (≈ 0.173 µM) | MIC ([24]; NR49294, 48 h, read-out: MIC at 48 h): 0.25 µg/mL (≈ 0.173 µM) | MIC [4]: 16 µg/mL (≈ 11 µM) | MIC [6]: 16 µg/mL (≈ 11 µM) | Spores in feces ([25]; 50 mg/kg vancomycin, in words): spores were observed on day 10; also recorded: no spores were observed until day 10 | Reduction in vegetative cells in feces by day 10 ([25]; dose of compound 2 not stated): 2 log | Total cell counts in feces, reduction on day 10 compared to day 3 ([25]; vancomycin 50 mg/kg po for 5 days): 1.02 log | Toxin in feces ([25]; vancomycin group, day 10, in words): toxin was observed | MIC ([7]; Bifidobacterium longum): 0.25 µg/mL (≈ 0.173 µM) | MIC ([8]; BAA1804, 24 h, read-out: MIC at 24 h): 1 µg/mL (≈ 0.69 µM) | MIC ([8]; BAA1804, 48 h, read-out: MIC at 48 h): 1 µg/mL (≈ 0.69 µM) | MIC ([9]; Lactobacillus gasseri): 1 µg/mL (≈ 0.69 µM) | MIC ([10]; BAA1803, 24 h, read-out: MIC at 24 h): 1 µg/mL (≈ 0.69 µM) | MIC ([10]; BAA1803, 48 h, read-out: MIC at 48 h): 2 µg/mL (≈ 1.38 µM) | Survival after 25 days [26]: 45% | MIC ([11]; Corynebacterium): 0.25 µg/mL (≈ 0.173 µM) | MIC ([12]; BAA1801, 24 h, read-out: MIC at 24 h): 0.25 µg/mL (≈ 0.173 µM) | MIC ([12]; BAA1801, 48 h, read-out: MIC at 48 h): 0.25 µg/mL (≈ 0.173 µM) | MIC [13]: 8 µg/mL (≈ 5.52 µM) | MIC ([14]; Bacteroides fragilis): 16 µg/mL (≈ 11 µM) | MIC ([27]; BAA1814, 24 h, read-out: MIC at 24 h): 0.5 µg/mL (≈ 0.345 µM) | MIC ([27]; BAA1814, 48 h, read-out: MIC at 48 h): 0.5 µg/mL (≈ 0.345 µM) | MIC ([15]; Fusobacterium nucleatum): 0.25 µg/mL (≈ 0.173 µM) | MIC ([28]; NR49318, 24 h, read-out: MIC at 24 h): 0.25 µg/mL (≈ 0.173 µM) | MIC ([28]; NR49318, 48 h, read-out: MIC at 48 h): 0.25 µg/mL (≈ 0.173 µM) | MIC ([16]; ATCC43598, 24 h, read-out: MIC at 24 h): 1 µg/mL (≈ 0.69 µM) | MIC ([16]; ATCC43598, 48 h, read-out: MIC at 48 h): 1 µg/mL (≈ 0.69 µM) | MIC ([17]; ATCC43255, 24 h, read-out: MIC at 24 h): 0.5 µg/mL (≈ 0.345 µM) | MIC ([17]; ATCC43255, 48 h, read-out: MIC at 48 h): 0.5 µg/mL (≈ 0.345 µM) | Activity against C. difficile spores [18]: not active | Inhibition of toxin production [18]: Neither vancomycin nor metronidazole inhibit toxin production | MIC ([19]; Veillonella): > 32 µg/mL | MIC ([29]; NR49292, 24 h, read-out: MIC at 24 h): 0.25 µg/mL (≈ 0.173 µM) | MIC ([29]; NR49292, 48 h, read-out: MIC at 48 h): 0.25 µg/mL (≈ 0.173 µM) | MIC [20]: 32 µg/mL (≈ 22.1 µM) | MIC [21]: > 32 µg/mL | MIC ([22]; BAA1812, 24 h, read-out: MIC at 24 h): 0.25 µg/mL (≈ 0.173 µM) | MIC ([22]; BAA1812, 48 h, read-out: MIC at 48 h): 0.5 µg/mL (≈ 0.345 µM)
